Results: patent US4472286A, “Perfluoroalkyl anion/perfluoroalkyl cation ion pair complexes” (Ciba-Geigy Corporation, priority 1983, dated 1984)
Blank lines part the entries; values can stand above or below the compound they belong to.

Assays:
[1] = Surface tension of aqueous solutions (ASTM D-1331-56); assay type: physicochemical; conditions: for Surface tension, anionic surfactant: Table 5, 0.01%
[2] = Solubility in water of Rf.Rf complexes and precursor surfactants; assay type: physicochemical
Protocol: The following Table 1 illustrates how a selected type of an Rf Rf ion-pair complex differs in its properties from the precursor anionic and cationic fluorochemical surfactants. Besides the differences shown in Table 1 (solubility, melting point, surface tension), Rf Rf ion-pair complexes also differ in many other properties from their precursor surfactants.
(§1) The products of Examples 1, 2 and 4 were tested for their respective solubility in distilled water.

[3] = Micellar behavior in distilled water; assay type: physicochemical
Protocol: as §1

[4] = background section; cited from earlier work

Compound: O=S(=O)(O)C(F)(F)C(F)(F)C(F)(F)C(F)(F)C(F)(F)C(F)(F)C(F)(F)C(F)(F)F [FC-95]
Surface tension, anionic surfactant alone ([1]; Table 4, at 0.01% in water): 42.2
Surface tension, anionic surfactant [1]: 42.2

Compound: C[N+](C)(C)CCCNS(=O)(=O)C(F)(F)C(F)(F)C(F)(F)C(F)(F)C(F)(F)C(F)(F)C(F)(F)C(F)(F)F [FC-134]
Surface tension, cationic surfactant alone ([1]; Table 4, at 0.01% in water): 17.8

Compound: CCN(CC(=O)O)S(=O)(=O)C(F)(F)C(F)(F)C(F)(F)C(F)(F)C(F)(F)C(F)(F)C(F)(F)C(F)(F)F [FC-128]
Surface tension, anionic surfactant alone ([1]; Table 4, at 0.01% in water): 24.7
Surface tension, anionic surfactant [1]: 24.7

solubility in distilled water [2]: 5×10^-3 weight %
surface tension of concentrated solution ([1]; concentrated solution in distilled water): 16.9 dynes/cm
micellar behavior [3]: None
Compound: 3-(1,1,2,2-tetrahydroperfluorooctylthio)-2-hydroxypropyltrimethylammonium 2-methyl-2-(3-[1,1,2,2-tetrahydroperfluorooctylthio]propanesulfonate [Example 1]

Compound: decyltrimethylammonium decyl sulfate
surface tension of aqueous solutions (literature / general knowledge) [4]: ≥ 22 dynes/cm
